Measurements reported in PubChem BioAssay AID226 (DTP/NCI, 2004).
Where “and” joins values, the source holds several entries; their conditions need not be identical. Equal entries are not always repeated. Toxic doses and inconclusive results are not listed.

Tested on: B6C3F1 mice, intracerebral ependymoblastoma, median survival T/C
Assay: NCI In Vivo Anticancer Drug Screen. Data for tumor model Ependymoblastoma (intracerebral) in B6C3F1 mice
Settings: endpoint: median survival time, higher = longer survival
Procedure: The antitumor activity of compounds was measured in mice bearing transplantable tumors. Survival or tumor size were measured and the results are expressed as the measurement made in the treated group (T) divided by the measurement made in the vehicle treated control group (C). The tumor model used in this assay is Ependymoblastoma (intracerebral) in B6C3F1 mice

O=C(O)CCCc1ccc(N(CCCl)CCCl)cc1
T/C (dose: 0.5 mg/kg/injection, schedule: Q01DX005 (ip), vehicle: Klucel (hydroxypropylcellulose) (HPC)): 114 % of control | T/C (dose: 1.0 mg/kg/injection, schedule: Q01DX005 (ip), vehicle: Klucel (hydroxypropylcellulose) (HPC)): 114 % of control | T/C (dose: 1.0 mg/kg/injection, schedule: Q01DX005 (ip), vehicle: saline with Tween-80): 120 % of control | T/C (dose: 2.0 mg/kg/injection, schedule: Q01DX001 (ip), vehicle: Klucel (hydroxypropylcellulose) (HPC)): 103 % of control and 104 % of control (2×) | T/C (dose: 2.0 mg/kg/injection, schedule: Q01DX005 (ip), vehicle: Klucel (hydroxypropylcellulose) (HPC)): 113 % of control | T/C (dose: 4.0 mg/kg/injection, schedule: Q01DX001 (ip), vehicle: Klucel (hydroxypropylcellulose) (HPC)): 97 % of control and 104 % of control and 105 % of control | T/C (dose: 4.0 mg/kg/injection, schedule: Q01DX005 (ip), vehicle: Klucel (hydroxypropylcellulose) (HPC)): 105 % of control | T/C (dose: 8.0 mg/kg/injection, schedule: Q01DX001 (ip), vehicle: Klucel (hydroxypropylcellulose) (HPC)): 100 % of control and 101 % of control and 108 % of control | T/C (dose: 8.0 mg/kg/injection, schedule: Q01DX005 (ip), vehicle: Klucel (hydroxypropylcellulose) (HPC)): 113 % of control | T/C (dose: 8.0 mg/kg/injection, schedule: Q01DX005 (ip), vehicle: saline with Tween-80): 153 % of control | T/C (dose: 16.0 mg/kg/injection, schedule: Q01DX001 (ip), vehicle: Klucel (hydroxypropylcellulose) (HPC)): 104 % of control and 108 % of control and 110 % of control | T/C (dose: 16.0 mg/kg/injection, schedule: Q01DX005 (ip), vehicle: saline with Tween-80): 180 % of control | T/C (dose: 32.0 mg/kg/injection, schedule: Q01DX001 (ip), vehicle: Klucel (hydroxypropylcellulose) (HPC)): 114 % of control and 117 % of control and 121 % of control

O=C(O)C1(C(=O)O)CCC1.[NH2-].[NH2-].[Pt+2]
T/C (dose: 16.0 mg/kg/injection, schedule: Q01DX005 (ip), vehicle: dextrose): 110 % of control and 118 % of control | T/C (dose: 32.0 mg/kg/injection, schedule: Q01DX005 (ip), vehicle: dextrose): 119 % of control and 120 % of control

CN1c2c(nc(N)[nH]c2=O)NCC1CCNc1ccc(C(=O)NC(CCC(=O)O)C(=O)O)cc1 (centres undefined)
T/C (dose: 50.0 mg/kg/injection, schedule: Q#ADX018 (ip), vehicle: saline): 114 % of control | T/C (dose: 100.0 mg/kg/injection, schedule: Q01DX009 (ip), vehicle: saline): 111 % of control and 114 % of control | T/C (dose: 100.0 mg/kg/injection, schedule: Q12HX018 (ip), vehicle: saline): 122 % of control | T/C (dose: 100.0 mg/kg/injection, schedule: Q#A X018 (ip), vehicle: saline): 195 % of control | T/C (dose: 100.0 mg/kg/injection, schedule: Q#ADX018 (ip), vehicle: saline): 114 % of control | T/C (dose: 200.0 mg/kg/injection, schedule: Q01DX009 (ip), vehicle: saline): 105 % of control and 115 % of control | T/C (dose: 200.0 mg/kg/injection, schedule: Q#A X018 (ip), vehicle: saline): 216 % of control | T/C (dose: 200.0 mg/kg/injection, schedule: Q#ADX018 (ip), vehicle: saline): 119 % of control | T/C (dose: 400.0 mg/kg/injection, schedule: Q01DX009 (ip), vehicle: saline): 109 % of control | T/C (dose: 400.0 mg/kg/injection, schedule: Q#A X018 (ip), vehicle: saline): 190 % of control | T/C (dose: 800.0 mg/kg/injection, schedule: Q01DX009 (ip), vehicle: saline): 121 % of control and 122 % of control | T/C (dose: 1600.0 mg/kg/injection, schedule: Q01DX009 (ip), vehicle: saline): 120 % of control

NS(=O)(=O)c1cc2c(cc1Cl)NC=NS2(=O)=O
T/C (dose: 37.5 mg/kg/injection, schedule: Q01DX005 (ip), vehicle: Klucel (hydroxypropylcellulose) (HPC)): 109 % of control | T/C (dose: 75.0 mg/kg/injection, schedule: Q01DX005 (ip), vehicle: Klucel (hydroxypropylcellulose) (HPC)): 96 % of control | T/C (dose: 150.0 mg/kg/injection, schedule: Q01DX005 (ip), vehicle: Klucel (hydroxypropylcellulose) (HPC)): 90 % of control | T/C (dose: 300.0 mg/kg/injection, schedule: Q01DX005 (ip), vehicle: Klucel (hydroxypropylcellulose) (HPC)): 107 % of control | T/C (dose: 600.0 mg/kg/injection, schedule: Q01DX005 (ip), vehicle: Klucel (hydroxypropylcellulose) (HPC)): 102 % of control

CCN(CC)CCOc1ccc(/C(=C(\Cl)c2ccccc2)c2ccccc2)cc1
T/C (dose: 8.0 mg/kg/injection, schedule: Q01DX005 (ip), vehicle: saline): 101 % of control and 106 % of control | T/C (dose: 16.0 mg/kg/injection, schedule: Q01DX005 (ip), vehicle: saline): 93 % of control and 100 % of control | T/C (dose: 32.0 mg/kg/injection, schedule: Q01DX005 (ip), vehicle: saline): 92 % of control and 103 % of control | T/C (dose: 64.0 mg/kg/injection, schedule: Q01DX005 (ip), vehicle: saline): 101 % of control and 104 % of control

NC(CO)(CO)CO
T/C (dose: 200.0 mg/kg/injection, schedule: Q01DX005 (ip), vehicle: saline): 98 % of control | T/C (dose: 400.0 mg/kg/injection, schedule: Q01DX005 (ip), vehicle: saline): 110 % of control | T/C (dose: 800.0 mg/kg/injection, schedule: Q01DX005 (ip), vehicle: saline): 105 % of control | T/C (dose: 1600.0 mg/kg/injection, schedule: Q01DX005 (ip), vehicle: saline): 110 % of control

CCC(=O)NC1=C(N2CC2C)C(=O)C(NC(=O)CC)=C(N2CC2C)C1=O (centres undefined)
T/C (dose: 0.78 mg/kg/injection, schedule: Q01DX009 (ip), vehicle: Klucel (hydroxypropylcellulose) (HPC)): 105 % of control | T/C (dose: 1.56 mg/kg/injection, schedule: Q01DX009 (ip), vehicle: Klucel (hydroxypropylcellulose) (HPC)): 110 % of control | T/C (dose: 3.12 mg/kg/injection, schedule: Q01DX009 (ip), vehicle: Klucel (hydroxypropylcellulose) (HPC)): 106 % of control | T/C (dose: 6.25 mg/kg/injection, schedule: Q01DX009 (ip), vehicle: Klucel (hydroxypropylcellulose) (HPC)): 105 % of control
